Patent publication US9315531B2, “Titanocene-gold derivatives comprising thiolato ligands” (Research Foundation of the City University of New York, priority 2014, dated 2016)

Assays:
[1] = end of the study
Procedure: At the end of the study, liver, kidney and tumor of the animals were harvested, weighed and transferred into glass vials. One ml of water was added to each samples and subjected to ultrasonic tissue disruption at 15 W power for 1 minute. The tissue homogenates were frozen at −80° C. for two hours and lyophilized. The lyophilized product was heated at 90° C. with the concentrated acid mix (described above) for five hours, cooled, diluted with water and analyzed for titanium and gold by ICP-MS.

[2] = Procedure: The lethal dose (LD) and maximum tolerated doses (MTD) of compound 2 were evaluated in C57/BL6 mice (see experimental for details). […] Twenty-four hours after the last dose all mice used in the MTD study were euthanized and blood plasma, liver, spleen and kidneys were collected and used for histological analysis.
Lethal and maximum tolerated doses (LD and MTD): Determination of lethal and maximum tolerated doses (LD and MTD) in mice: The preliminary toxicity testing of compound 2 was performed in C57BL/6 female mice six to eight weeks of age, maintained in accordance with institutional guidelines at the University of Hawaii Cancer Center (UHCC) governing the care of laboratory animals (IACUC number: A3423-01). To determine the lethal dose, mice were treated for five consecutive days at dosages ranging from 1.5 mg/kg/day to 6 mg/kg/day. One mouse per dose was used. Mice were weighed every forty-eight hours, and sacrificed twenty-four hours after the last dose. […] In order to determine the maximum tolerated dose (MTD) the animals were monitored by trained individuals for pain and distress as appropriate for the animal, under conditions and by procedures established by the UHCC vivarium veterinarian staff and research personnel (BTE). The maximum tolerated dose (MTD) was determined by observing the progression of the mice treated at doses below the lethal dose. Body weights, changes in behavior and signs of distress were recorded. The dose at which neither debilitating effects nor sign of distress were observed was set as the MTD. More specifically the signs for distress monitored were: 1. Decreased food and water consumption; 2. […] Abnormal posture/positioning (e.g., head-pressing, hunched back); 4. Unkempt appearance (erected, matted, or dull haircoat); 5. Self-mutilation, gnawing at limbs; 6. Excessive self-imposed isolation/hiding. […] One group of mice was treated with the solvent (negative control).

Caki-1 renal carcinoma = assay: Caki-1 xenografts in mice, tumor growth
Procedure: Study of the effects of 2 in Caki-1 xenografts in mice: twelve female NOD.CB17-Prkdc scid/J (non-obese diabetic—severe combined immunodeficiency) from Jackson Laboratory (Bar Harbor, Me. and Sacramento, Calif., USA) were used for the xenograft experiment (ages 8 to 12 weeks and weighing 19-22 g) were used. Each mouse received 8×10^6 tumor cells subcutaneously without anesthesia. Exponentially growing Caki-1 human kidney cancer cells were suspended in 1:1 ratio 50 μl phosphate-buffered saline (PBS; pH 7.4) plus 50 μl of matrigel (BD Biosciences, San Jose, Calif., USA) were injected subcutaneously on both left and right flank of each mice. The diameter of the tumors was measured once weekly using an electronic digital caliper and the tumor volume (TV) was calculated according to the empirical equation TV=(a)(b^2)×π/6 where a=longest dimension; b=largest dimension orthogonal to a. The median volumes of each group were normalized to the initial tumor volume resulting in the relative tumor volume. […] Treatment started when tumors were palpable (about 6 mm diameter). Mice were randomized to treatment groups based on their starting tumor burden at twelve weeks of age to ensure equivalent distribution between the three groups. At trial end-point the mice were sacrificed and tumors measured again after excision and then processed for further analysis. Histological as well as biochemical evaluations of blood, liver, spleen, and kidney, were conducted.

Caki-1 = assay: Cell viability assay (XTT), Caki-1; assay type: cell-based, human; settings: 72 h incubation
Description: Cell Culture: Human renal cell carcinoma lines A498, Caki-1 and UO31, as well as the human prostate carcinoma cell lines DU145 and PC3 were newly obtained for these studies from the American Type Culture Collection (ATCC) (Manassas, Va., USA) and cultured in Roswell Park Memorial Institute (RPMI-1640) (Mediatech Inc., Manassas, Va.) media containing 10% fetal bovine serum (FBS, Life Technologies, Grand Island, N.Y.), 1% Minimum Essential Media (MEM) nonessential amino acids (NEAA, Mediatech) and 1% penicillin-streptomycin (PenStrep, Mediatech). HEK-293T cells were newly purchased from ATCC (Manassas, Va., USA) and maintained in Dulbecco's modified Eagle's medium (DMEM) (Mediatech) supplemented with 10% FBS, 1% NEAA and 1% PenStrep. Normal human renal epithelial cells (RPTC) were purchased from Lifeline Cell Technology (Lifeline Cell Technology, Frederick, Md., USA) and maintained in Lifeline's Renal Life Medium from Lifeline Cell Technology supplemented with 2.4 mM L-glutamine, 5 μg/mL rh insulin, 1.0 nM epinephrine, 10 nM triiodothyronine, 0.1 μg/mL hydrocortisone hemisuccinate, 10 ng/mL rhEGF, 0.50% FBS, 5 μg/mL transferrin PS. All cells were cultured at 37° C. and 5% CO2 in a humidified incubator.
The optical absorbance of each well in a 96-well plate was quantified using BioTek ELx808 absorbance microplate reader (BioTek Winooski, Vt.) set at 450 nm wavelength. The percentage of surviving cells was calculated from the ratio of absorbance of treated to untreated cells.

HEK-293T = assay: Cell viability assay (XTT), HEK-293T; assay type: cell-based; settings: 72 h incubation; non-tumorigenic human embryonic kidney cell line
Procedure: HEK-293T cells were newly purchased from ATCC (Manassas, Va., USA) and maintained in Dulbecco's modified Eagle's medium (DMEM) (Mediatech) supplemented with 10% FBS, 1% NEAA and 1% PenStrep. […] All cells were cultured at 37° C. and 5% CO2 in a humidified incubator.

Procedure for thioredoxin reductase: After 5, 12 or 24 hours of treatment incubation cells were washed three times in PBS, and lysed by douncing using scrapers and sheer force though syringe with a 34 gauge needle in assay buffer (Abeam Thioredoxin Reductase Assay kit, ab83463) added to 1 mM protease inhibitor cocktail (Abeam, ab65621). The lysates were centrifuged at 10,000×g for 15 minutes at 4° C. to isolate insoluble material. The total protein concentrations of soluble lysates were measured using the BCA Protein Assay (Life Technologies). The soluble lysates were incubated for 20 minutes in assay buffer with a proprietary thioredoxin reductase specific inhibitor before adding a specific substrate, DTNB (5, 5′-dithiobis(2-nitrobenzoic) acid), and measuring activity at 1 minute intervals for 30 minutes using the BioTek fluorescence microplate reader (BioTek U.S., Winooski, Vt.) set at =412 nm. Lysates were tested in duplicate. TrxR activity was calculated based on the linear amount of TNB produced per minute per mg of total protein and corrected for background activity from enzymes other than TrxR in the lysates.

For “[(η-C5H5)2TiMe(μ-mba)Au(PPh3)] [Compound 2]”, the “accumulation in liver and kidney” value [1] was “accumulated in the liver and kidney to a more significant degree”, the “inhibition of thioredoxin reductase activity” value (thioredoxin reductase; Caki-1 cells, 5 μM, five hour incubation) was 31.6% and the IC50 (thioredoxin reductase; read-out: IC50 thioredoxin reductase in Caki-1 cells, after twelve hours) was 880 nM. The “necropsy findings at MTD” value ([2]; 10 mg/kg/day compound 6, 5 mg/kg/day compound 2) was “normal liver and slightly enlarged spleens”, the “maximum tolerated dose (MTD)” value ([2]; C57/BL6 mice, no visible signs of distress over seven days) was 5 mg/kg/day and the “lethal dose (LD)” value ([2]; C57/BL6 mice, once daily subcutaneous injection) was 6 mg/kg/day. The “decrease in tumor size (shrinkage) from the starting volume” value (Caki-1 renal carcinoma; between day 1 and day 28 of treatment, total of 14 doses) was 67%, the “Primary Tumor” value (Caki-1 renal carcinoma; tumor measured on day 28, after 14th dose, every other day dosing (compound 6 […], compound 2 3 mg/kg)) was 41.33 ± 13.00 mm^3 and the “weight loss in treated mice” value (Caki-1 renal carcinoma; xenograft protocol, 14 doses every other day) was “no weight loss”. For the same substance, the IC50 (Caki-1) was 120 ± 3 nM and the IC50 (HEK-293T) was 490 ± 0.8 nM.
